{
  "source": "patent US7713963B2",
  "about": "“Acylated indanyl amines and their use as pharmaceuticals” (sanofi-aventis Deutschland GmbH, priority 2001, dated 2010)",
  "test_system": "eNOS promoter",
  "experiment": "Activation of eNOS transcription (eNOS promoter-luciferase reporter gene assay)",
  "assay_type": "cell-based, human",
  "details": "Homo sapiens, 18 h, 18 h incubation; for maximal fold induction: maximum transcription induction ratio (luciferase with compound / solvent alone), read-out: TIR (max); for EC50: Endothelial cell, EC50 of transcription induction ratio, determined graphically, human endothelial cell line, read-out: EC-50",
  "description": "Measurement of activation of eNOS transcription Activation of eNOS transcription was measured as described in detail in Li et al. “Activation of protein kinase C alpha and/or epsilon enhances transcription of the human endothelial nitric oxide synthase gene”, Mol. Pharmacol. 1998; 53: 630-637. Briefly, a 3.5 kB long fragment 5′ of the starting codon of the eNOS gene was cloned, sequenced and cloned in firefly luciferase expression plasmids to monitor activation of the eNOS promoter by reporter gene activity. A human endothelial cell line stable transfected and expressing this promoter-reporter construct was used for compound testing. Cells were incubated for 18 h with compounds. All compounds were dissolved in sterile DMSO. A final concentration of 0.5% DMSO in complete medium was allowed. Induction of reporter gene expression in these cells was measured using a standard luciferase assay system (Promega, Cat. No E150) according to the manufacturer's instructions. Luciferase induction in cells incubated with compounds were compared to those incubated with solvent alone. The ratio of both activities (transcription induction ratio, TIR) was plotted as a function of compound concentration. […] EC50 values of transcription induction ratios as a function of compound concentration were determined graphically.",
  "data": [
    {"smiles": "O=C(NC1Cc2ccccc2C1)c1cccc(F)c1F", "note": "[Compound 302, 2,3-DIFLUORO-N-INDAN-2-YL-BENZAMIDE]", "values": [
      {"measurement": "maximal fold induction", "value": 2.8},
      {"measurement": "EC50", "value": 27, "unit": "µM"}
    ]},
    {"smiles": "CCOc1cccc(C(=O)NC2Cc3ccccc3C2)c1", "note": "[Compound 306, 3-ETHOXY-N-INDAN-2-YL-BENZAMIDE]", "values": [
      {"measurement": "maximal fold induction", "value": 2.7},
      {"measurement": "EC50", "value": 0.263, "unit": "µM"}
    ]},
    {"smiles": "CS(=O)(=O)c1ccc(C(=O)NC2Cc3ccccc3C2)c(Cl)c1", "note": "[Compound 312, 2-CHLORO-N-INDAN-2-YL-4-METHANESULFONYL-BENZAMIDE]", "values": [
      {"measurement": "maximal fold induction", "value": 2.2},
      {"measurement": "EC50", "value": 16, "unit": "µM"}
    ]},
    {"smiles": "O=C(NC1Cc2ccccc2C1)c1ccc(Cl)c(Cl)c1", "note": "[Compound 314, 3,4-DICHLORO-N-INDAN-2-YL-BENZAMIDE]", "values": [
      {"measurement": "maximal fold induction", "value": 2.2},
      {"measurement": "EC50", "value": 12, "unit": "µM"}
    ]},
    {"smiles": "O=C(NC1Cc2ccccc2C1)c1cc2cc(Cl)ccc2[nH]1", "note": "[Compound 315, 5-CHLORO-1H-INDOLE-2-CARBOXYLIC ACID INDAN-2-YLAMIDE]", "values": [
      {"measurement": "maximal fold induction", "value": 2.2},
      {"measurement": "EC50", "value": 16, "unit": "µM"}
    ]},
    {"smiles": "O=C(NC1Cc2ccccc2C1)c1ccc(Br)cc1Cl", "note": "[Compound 317, 4-BROMO-2-CHLORO-N-INDAN-2-YL-BENZAMIDE]", "values": [
      {"measurement": "maximal fold induction", "value": 2.9},
      {"measurement": "EC50", "value": 0.197, "unit": "µM"}
    ]},
    {"smiles": "Cc1c(C(=O)NC2Cc3ccccc3C2)oc2ccccc12", "note": "[Compound 319, 3-METHYL-BENZOFURAN-2-CARBOXYLIC ACID INDAN-2-YLAMIDE]", "values": [
      {"measurement": "maximal fold induction", "value": 2.4},
      {"measurement": "EC50", "value": 25, "unit": "µM"}
    ]},
    {"smiles": "O=C(NC1Cc2ccccc2C1)c1ccc(F)c(F)c1F", "note": "[Compound 320, 2,3,4-TRIFLUORO-N-INDAN-2-YL-BENZAMIDE]", "values": [
      {"measurement": "maximal fold induction", "value": 3},
      {"measurement": "EC50", "value": 12, "unit": "µM"}
    ]},
    {"smiles": "CS(=O)(=O)c1csc(C(=O)NC2Cc3ccccc3C2)c1Cl", "note": "[Compound 321, 3-CHLORO-4-METHANESULFONYL-THIOPHENE-2-CARBOXYLIC ACID INDAN-2-YLAMIDE]", "values": [
      {"measurement": "maximal fold induction", "value": 2.5},
      {"measurement": "EC50", "value": 9.6, "unit": "µM"}
    ]},
    {"smiles": "CCCc1c(C(=O)NC2Cc3ccccc3C2)cnn1-c1ccc(Cl)cc1", "note": "[Compound 322, 1-(4-CHLORO-PHENYL)-5-PROPYL-1H-PYRAZOLE-4-CARBOXYLIC ACID INDAN-2-YLAMIDE]", "values": [
      {"measurement": "maximal fold induction", "value": 2.3},
      {"measurement": "EC50", "value": 23, "unit": "µM"}
    ]},
    {"smiles": "O=C(NC1Cc2ccccc2C1)c1sc2cc(F)ccc2c1Cl", "note": "[Compound 324, 3-CHLORO-6-FLUORO-BENZO[B]THIOPHENE-2-CARBOXYLIC ACID INDAN-2-YLAMIDE]", "values": [
      {"measurement": "maximal fold induction", "value": 1.7},
      {"measurement": "EC50", "value": 2.1, "unit": "µM"}
    ]},
    {"smiles": "Cc1ccc(C)n1-c1ccc(C(=O)NC2Cc3ccccc3C2)cc1", "note": "[Compound 327, 4-(2,5-DIMETHYL-PYRROL-1-YL)-N-INDAN-2-YL-BENZAMIDE]", "values": [
      {"measurement": "maximal fold induction", "value": 2.5},
      {"measurement": "EC50", "value": 2.6, "unit": "µM"}
    ]},
    {"smiles": "O=C(NC1Cc2ccccc2C1)c1ccc(-n2ccnc2)cc1", "note": "[Compound 328, 4-IMIDAZOL-1-YL-N-INDAN-2-YL-BENZAMIDE]", "values": [
      {"measurement": "maximal fold induction", "value": 2.4},
      {"measurement": "EC50", "value": 24, "unit": "µM"}
    ]},
    {"smiles": "O=C(NC1Cc2ccccc2C1)c1sc2cccc(Cl)c2c1Cl", "note": "[Compound 329, 3,4-DICHLORO-BENZO[B]THIOPHENE-2-CARBOXYLIC ACID INDAN-2-YLAMIDE]", "values": [
      {"measurement": "maximal fold induction", "value": 1.5},
      {"measurement": "EC50", "value": 2.2, "unit": "µM"}
    ]},
    {"smiles": "O=C(NC1Cc2ccccc2C1)c1cc(Cl)ccc1F", "note": "[Compound 330, 5-CHLORO-2-FLUORO-N-INDAN-2-YL-BENZAMIDE]", "values": [
      {"measurement": "maximal fold induction", "value": 2.2},
      {"measurement": "EC50", "value": 12, "unit": "µM"}
    ]},
    {"smiles": "O=C(NC1Cc2ccccc2C1)c1ccc(Cl)cc1Br", "note": "[Compound 331, 2-BROMO-4-CHLORO-N-INDAN-2-YL-BENZAMIDE]", "values": [
      {"measurement": "maximal fold induction", "value": 2.8},
      {"measurement": "EC50", "value": 0.147, "unit": "µM"}
    ]},
    {"smiles": "Cc1ccc2c(Cl)c(C(=O)NC3Cc4ccccc4C3)sc2c1", "note": "[Compound 332, 3-CHLORO-6-METHYL-BENZO[B]THIOPHENE-2-CARBOXYLIC ACID INDAN-2-YLAMIDE]", "values": [
      {"measurement": "maximal fold induction", "value": 2},
      {"measurement": "EC50", "value": 4, "unit": "µM"}
    ]},
    {"smiles": "Cc1c(C(=O)NC2Cc3ccccc3C2)cnn1-c1ccc(Cl)cc1", "note": "[Compound 341, 1-(4-CHLORO-PHENYL)-5-METHYL-1H-PYRAZOLE-4-CARBOXYLIC ACID INDAN-2-YLAMIDE]", "values": [
      {"measurement": "maximal fold induction", "value": 2.5},
      {"measurement": "EC50", "value": 22, "unit": "µM"}
    ]},
    {"smiles": "Cc1csc(C(=O)NC2Cc3ccccc3C2)c1Cl", "note": "[Compound 342, 3-CHLORO-4-METHYL-THIOPHENE-2-CARBOXYLIC ACID INDAN-2-YLAMIDE]", "values": [
      {"measurement": "maximal fold induction", "value": 3},
      {"measurement": "EC50", "value": 0.287, "unit": "µM"}
    ]},
    {"smiles": "Cc1ccc(F)c(C(=O)NC2Cc3ccccc3C2)c1Cl", "note": "[Compound 346, 2-CHLORO-6-FLUORO-N-INDAN-2-YL-3-METHYL-BENZAMIDE]", "values": [
      {"measurement": "maximal fold induction", "value": 2.6},
      {"measurement": "EC50", "value": 26, "unit": "µM"}
    ]},
    {"smiles": "O=C(NC1Cc2ccccc2C1)c1ccc(Br)cc1F", "note": "[Compound 350, 4-BROMO-2-FLUORO-N-INDAN-2-YL-BENZAMIDE]", "values": [
      {"measurement": "maximal fold induction", "value": 2.9},
      {"measurement": "EC50", "value": 0.523, "unit": "µM"}
    ]},
    {"smiles": "O=C(NC1Cc2ccccc2C1)c1c(F)cccc1Br", "note": "[Compound 358, 2-BROMO-6-FLUORO-N-INDAN-2-YL-BENZAMIDE]", "values": [
      {"measurement": "maximal fold induction", "value": 2.5},
      {"measurement": "EC50", "value": 4.7, "unit": "µM"}
    ]},
    {"smiles": "O=C(NC1Cc2ccccc2C1)c1c(F)ccc(F)c1Cl", "note": "[Compound 360, 2-CHLORO-3,6-DIFLUORO-N-INDAN-2-YL-BENZAMIDE]", "values": [
      {"measurement": "maximal fold induction", "value": 2.6},
      {"measurement": "EC50", "value": 10, "unit": "µM"}
    ]}
  ]
}
